Experimental data: patent US8222022B2, “Tri-functionalized cryptophane biosensors” (The Trustees of the University of Pennsylvania, priority 2008, dated 2012)

Columns and labels:
[1] = comparison value; cited from earlier work
[2] = Aqueous solubility (visual observation of precipitation, dissolution in aqueous base); conditions: visual observation of precipitation during titration
Text: Steric congestion near the carboxylic acid group decreases acidity by preventing efficient solvation of the carboxylate anion. […] Each acid group attached to TAAC can be approximated as being an acetic acid attached to a ˜1 nm diameter nonpolar sphere. Water molecules surrounding the nonpolar cryptophane surface must be ordered, a consequence of the hydrophobic effect. Carboxylate solvation must directly compete with this ordered solvation sphere necessary for the cryptophane core.

[3] = Xenon binding by fluorescence quenching; conditions: 293 K, phosphate buffer
Method: Steady-state fluorescence spectra were acquired using a Varian Cary Eclipse fluorimeter equipped with a Peltier multicell holder for temperature control. Concentration measurements necessary for fluorescence work were obtained using an Agilent 8453 UV-Vis spectrophotometer. Xenon binding determination by fluorescence quenching was performed. The quantum yield of tri-acid cryptophane was measured relative to tryptophan.
The xenon affinity of tricarboxylate cryptophane was studied by fluorescence quenching (FIG. 2) and isothermal titration calorimetry (ITC) (FIG. 3). […] As in a previous fluorescence quenching study with TTPC, temperature-equilibrated solutions of xenon-saturated water were added sequentially by syringe to a septum-sealed fluorescence cuvette and fluorescence intensity measurements were taken. […]
A saturated xenon solution at 310 K ([Xe]=3.3 mM) was titrated into the septum-sealed cuvette by gas-tight syringe. […] In all cases, fluorescence spectra were collected after thermal equilibration at 293 K (FIG. 2)
The fluorescence maxima were fitted to a single-site binding model using the following relationship.
At xenon saturation, [Xe]=5.05 mM at 293 K and 1 atm, the cryptophane fluorescence was half quenched (Fo/F=2). No cryptophane impurities or concentration dependent phenomena were observed that might also contribute to partial fluorescence quenching. […]

[4] = Xenon binding by isothermal titration calorimetry (ITC) in phosphate buffer
Method: ITC samples were prepared and experiments were performed using a MicroCal VP-ITC titration microcalorimeter (Northampton, Mass.) at 293 K. Standard protocols and data analysis were used. Control enthalpograms are given in the appended figures.
In order to confirm the association constants obtained by fluorescence quenching, ITC experiments were performed.
(§1) Xenon binding was also determined by isothermal titration calorimetry (ITC), which directly measured the heat released during Xe association. ITC measurements were undertaken in 20 mM, pH 7.5 phosphate buffer at 293 K and 310 K as well as in human plasma at 310 K (FIG. 3).
The association constants obtained from fits of ITC data at 293 K (KA=1.73×10^4 M^−1, Table 5) and fluorescence quenching were in excellent agreement. […] This was likely a consequence of the 20 water molecules that make up the first solvation sphere of the Xe atom in aqueous solution.

[5] = Acid-base titration
[6] = biological target: human isozyme II (CAII) (Homo sapiens, UniProt P00918); test: Binding to carbonic anhydrase II in solution (ITC); conditions: read-out: KD against CAII
Text: The ^129Xe isotope has a spin-½ nucleus, a >200 ppm chemical shift window in water, and a natural isotopic abundance of 26% (commercially available up to 86%), which makes it an appealing biomolecular probe for MRI. Moreover, ^129Xe can be laser polarized to enhance MRI signals ˜10,000-fold.

[7] = Xenon binding by ITC in human plasma; conditions: Plasma 310 K
Method: as §1
From Table 5 and the known thermodynamics of xenon partitioning into water, an upper limit of ΔH=−7.5 kcal/mol was calculated for the enthalpy of xenon binding to I. Thus, the measured ΔH of −6.04 kcal/mol, although larger than in buffer, appeared reasonable.

[8] = 293 K, 20 mM pH 7.5 phosphate buffer

In the case of COc1ccccc1OCC(=O)O [2-(2-methoxyphenoxy)acetic acid], the “pKa of analogous acid (comparison)” value [1] is listed as 3.23.

For COc1cc2c3cc1OCCOc1cc4c(cc1OCC(=O)O)Cc1cc5c(OCC(=O)O)cc1Cc1cc(c(OCC(=O)O)cc1C4)OCCOc1cc(c(cc1OC)C3)Cc1cc(OC)c(cc1C2)OCCO5 [TAAC, Tri-Acetic Acid Cryptophane], the “deprotonations required for aqueous solubility” value [2] was “required all three acids to be deprotonated for aqueous solubility”, the “association constant (Xe) by fluorescence quenching” value [3] was 33,000±2000 M^−1 and the “additional stabilization of the Xe@TAAC complex relative to Xe@TTPC” value ([4]; 293 K) was -0.37 kcal/mol. For the same molecule, the “xenon association constant KA by ITC” value [4, 8] was 33,000±3000 M^−1, the “ΔG of xenon binding” value [4, 8] was -6.09 kcal/mol and the “ΔH of xenon binding” value [4, 8] was -4.3 ± 0.7 kcal/mol. For the same molecule, the “ΔS of xenon binding” value [4, 8] was 5.9 cal*mol^−1*K^−1, the xenon association constant ([4]; 293 K, by ITC and fluorescence quenching assay) was 33,000 M^−1 and the xenon association constant ([4]; 310 K, extrapolated from the 293 K value) was ~50,000 M^−1. For the same molecule, the KA ([4]; ITC at 293 K (Table 2)) was 3.33 ± 0.28 M^−1 × 10^4, the TΔS ([4]; ITC at 293 K (Table 2)) was 1.72 kcal/mol and the ΔG ([4]; ITC at 293 K (Table 2)) was -6.06 kcal/mol. For the same molecule, the ΔH ([4]; ITC at 293 K (Table 2)) was -4.34 ± 0.66 kcal/mol and the pKa [5] was 4.1.

With “tri-triazole propionate cryptophane [TTPC]” the Kd [6] was 60 ± 20 nM, the “association constant (Xe) by fluorescence quenching” value [3] was 17,000±1800 M^−1 and the KA ([4]; Buffer 293 K) was 1.73 ± 0.17 M^−1 × 10^4. For the same molecule, the TΔS ([4]; Buffer 293 K) was 2.55 kcal/mol, the ΔG ([4]; Buffer 293 K) was -5.69 kcal/mol and the ΔH ([4]; Buffer 293 K) was -3.14 ± 0.20 kcal/mol. The KA ([4]; Buffer 310 K) was 3.01 ± 0.26 M^−1 × 10^4, the TΔS ([4]; Buffer 310 K) was 2.80 kcal/mol and the ΔG ([4]; Buffer 310 K) was -6.36 kcal/mol. It also gave a ΔH ([4]; Buffer 310 K) of -3.56 ± 0.13 kcal/mol, a KA ([4]; ITC at 293 K (Table 2)) of 1.70 M^−1 × 10^4 and a TΔS ([4]; ITC at 293 K (Table 2)) of 2.55 kcal/mol. For the same molecule, the ΔG ([4]; ITC at 293 K (Table 2)) was -5.69 kcal/mol, the ΔH ([4]; ITC at 293 K (Table 2)) was -3.14 kcal/mol and the “upper limit of ΔH for the enthalpy of xenon binding” value ([4]; calculated from Table 5 and known thermodynamics of xenon partitioning into water) was at most -7.5 kcal/mol. The “ΔS of xenon binding” value ([4]; phosphate buffer, 293 and 310 K) was 9.0 cal/mol K, the KA [7] was 2.19 ± 0.22 M^−1 × 10^4 and the TΔS [7] was 0.12 kcal/mol. The “TΔS (contribution of entropy)” value [7] was 0.12, the “measured ΔH of xenon binding” value [7] was -6.04 kcal/mol and the ΔG [7] was -6.16 kcal/mol. The ΔH [7] was -6.04 ± 0.33 kcal/mol.
